The target in one assay is human GLP-1R (Homo sapiens, UniProt P43220). Briefly: Peptide-receptor mediated cAMP accumulation (LANCE Ultra cAMP) in CHO-K1 cells transfected with human GLP-1R. The format is cell-based. The settings on record: hGLP1 pEC50 (cAMP mean (n = 3): 11 point curve starting at 1 nM, Table 3).
A further assay concerns the target human GCGR (Homo sapiens, UniProt P47871). The assay is described as follows: Peptide-receptor mediated cAMP accumulation (LANCE Ultra cAMP) in CHO-K1 cells transfected with human GCGR. The format is cell-based. The settings on record: Table 3. (In general: Cyclic AMP is a second messenger, typically raised through Gs and lowered through Gi signalling.)

SMILES strings stand for the structures. Where a SMILES comes first, the peptide text is derived from it. [ ]: non-standard residue; d: D form. Aib = CC(C)(N)C(=O)O

human GCGR, sequence (P47871 26-477): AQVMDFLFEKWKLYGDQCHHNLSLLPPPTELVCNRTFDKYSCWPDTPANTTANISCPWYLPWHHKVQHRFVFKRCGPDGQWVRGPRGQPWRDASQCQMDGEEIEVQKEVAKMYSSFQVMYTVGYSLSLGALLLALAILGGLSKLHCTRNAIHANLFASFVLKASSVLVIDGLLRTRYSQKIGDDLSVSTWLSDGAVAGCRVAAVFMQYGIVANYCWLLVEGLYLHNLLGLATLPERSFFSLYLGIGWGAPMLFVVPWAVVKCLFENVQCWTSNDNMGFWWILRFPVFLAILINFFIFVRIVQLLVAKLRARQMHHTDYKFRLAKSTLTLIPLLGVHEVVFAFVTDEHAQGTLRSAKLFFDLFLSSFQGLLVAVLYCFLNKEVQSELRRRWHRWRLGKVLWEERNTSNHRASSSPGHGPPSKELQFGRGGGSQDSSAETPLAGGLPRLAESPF
human GLP-1R, sequence (P43220 24-463): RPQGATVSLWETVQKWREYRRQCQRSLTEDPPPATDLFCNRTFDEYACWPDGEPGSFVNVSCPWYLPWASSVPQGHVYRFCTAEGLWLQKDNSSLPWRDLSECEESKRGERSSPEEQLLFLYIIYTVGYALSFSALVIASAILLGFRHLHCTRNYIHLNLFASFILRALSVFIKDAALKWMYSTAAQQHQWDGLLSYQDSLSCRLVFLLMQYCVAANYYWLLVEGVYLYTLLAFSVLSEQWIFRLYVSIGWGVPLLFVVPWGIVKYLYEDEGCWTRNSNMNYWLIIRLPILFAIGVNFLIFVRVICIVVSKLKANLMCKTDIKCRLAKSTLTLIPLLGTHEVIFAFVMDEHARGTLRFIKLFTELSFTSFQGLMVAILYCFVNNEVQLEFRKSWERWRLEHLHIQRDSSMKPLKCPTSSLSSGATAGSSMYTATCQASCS

In general, EC50 refers to the concentration needed to bring the measured effect to its halfway point. A low value points to a more potent agent. Consider `CC(C)C[C@H](NC(=O)[C@H](Cc1ccc(O)cc1)NC(=O)[C@H](CCCCN)NC(=O)[C@H](CO)NC(=O)[C@H](Cc1ccc(O)cc1)NC(=O)[C@H](CC(=O)O)NC(=O)[C@H](CO)NC(=O)[C@@H](NC(=O)[C@H](Cc1ccccc1)NC(=O)[C@@H](NC(=O)CNC(=O)[C@H](Cc1c[nH]cn1)NC(=O)[C@H](CO)NC(=O)[C@@H](N)Cc1ccc(O)cc1)[C@@H](C)O)[C@@H](C)O)C(=O)N[C@@H](CC(=O)O)C(=O)NC(C)(C)C(=O)N[C@@H](C)C(=O)N[C@@H](CCCNC(=N)N)C(=O)N[C@@H](C)C(=O)N[C@@H](CCC(N)=O)C(=O)N[C@@H](CCC(=O)O)C(=O)N[C@@H](Cc1ccccc1)C(=O)N[C@H](C(=O)NC(C)(C)C(=O)N[C@@H](Cc1c[nH]c2ccccc12)C(=O)N[C@@H](CC(C)C)C(=O)N[C@@H](CCC(=O)O)C(=O)N[C@@H](CC(=O)O)C(=O)N[C@@H](CCC(=O)O)C(=O)N1CCC[C@H]1C(=O)N[C@@H](CCCCN)C(=O)N[C@@H](CO)C(=O)N[C@@H](CCCCN)C(=O)N[C@@H](CO)C(=O)N1CCC[C@H]1C(=O)N1CCC[C@H]1C(=O)N1CCC[C@H]1C(=O)N[C@@H](CO)C(N)=O)C(C)C` [Compound A67] (H-YSHGTFTSDYSKYLD[Aib]ARAQEFV[Aib]WLEDEPKSKSPPPS-NH2; N-terminus assumed), for which the EC50 on human GLP-1R is more than 1000 pM; on human GCGR it was 12.6 pM.
As for `CC(C)C[C@H](NC(=O)[C@H](Cc1ccc(O)cc1)NC(=O)[C@H](CCCCN)NC(=O)[C@H](CO)NC(=O)[C@H](Cc1ccc(O)cc1)NC(=O)[C@H](CC(=O)O)NC(=O)[C@H](CO)NC(=O)[C@@H](NC(=O)[C@H](Cc1ccccc1)NC(=O)[C@@H](NC(=O)CNC(=O)[C@H](Cc1c[nH]cn1)NC(=O)[C@H](CO)NC(=O)[C@@H](N)Cc1ccc(O)cc1)[C@@H](C)O)[C@@H](C)O)C(=O)N[C@@H](CC(=O)O)C(=O)NC(C)(C)C(=O)N[C@@H](C)C(=O)N[C@@H](CCCNC(=N)N)C(=O)N[C@@H](C)C(=O)N[C@@H](CCC(N)=O)C(=O)N[C@@H](CCC(=O)O)C(=O)N[C@@H](Cc1ccccc1)C(=O)N[C@H](C(=O)NC(C)(C)C(=O)N[C@@H](Cc1c[nH]c2ccccc12)C(=O)N[C@@H](CC(C)C)C(=O)N[C@@H](CCC(=O)O)C(=O)N[C@@H](CC(=O)O)C(=O)N[C@@H](CCC(=O)O)C(=O)N1CCC[C@H]1C(=O)N[C@@H](CCCCN)C(=O)N[C@@H](CO)C(=O)N[C@@H](CCCCN)C(=O)N[C@@H](CCC(=O)O)C(=O)N1CCC[C@H]1C(=O)N1CCC[C@H]1C(=O)N1CCC[C@H]1C(=O)N[C@@H](CO)C(N)=O)C(C)C` [Compound A68] (H-YSHGTFTSDYSKYLD[Aib]ARAQEFV[Aib]WLEDEPKSKEPPPS-NH2; N-terminus assumed), the EC50 on human GLP-1R was more than 1000 pM; at human GCGR, 5.01 pM.
Take `CC(C)C[C@H](NC(=O)[C@H](Cc1ccc(O)cc1)NC(=O)[C@H](CCCCN)NC(=O)[C@H](CO)NC(=O)[C@H](Cc1ccc(O)cc1)NC(=O)[C@H](CC(=O)O)NC(=O)[C@H](CO)NC(=O)[C@@H](NC(=O)[C@H](Cc1ccccc1)NC(=O)[C@@H](NC(=O)CNC(=O)[C@H](Cc1c[nH]cn1)NC(=O)[C@H](CO)NC(=O)[C@@H](N)Cc1ccc(O)cc1)[C@@H](C)O)[C@@H](C)O)C(=O)N[C@@H](CC(=O)O)C(=O)N[C@@H](CO)C(=O)N[C@@H](C)C(=O)N[C@@H](CCCNC(=N)N)C(=O)N[C@@H](C)C(=O)N[C@@H](CCC(N)=O)C(=O)N[C@@H](CCC(=O)O)C(=O)N[C@@H](Cc1ccccc1)C(=O)N[C@H](C(=O)N[C@@H](CCCCN)C(=O)N[C@@H](Cc1c[nH]c2ccccc12)C(=O)N[C@@H](CC(C)C)C(=O)N[C@@H](CCC(=O)O)C(=O)N[C@@H](CC(=O)O)C(=O)N[C@@H](CCC(=O)O)C(=O)N1CCC[C@H]1C(=O)N[C@@H](CCCCN)C(=O)N[C@@H](CO)C(=O)N[C@@H](CCCCN)C(=O)N[C@@H](CCC(=O)O)C(=O)N1CCC[C@H]1C(=O)N1CCC[C@H]1C(=O)N1CCC[C@H]1C(=O)N[C@@H](CO)C(=O)O)C(C)C` [Compound A69] (H-YSHGTFTSDYSKYLDSARAQEFVKWLEDEPKSKEPPPS-OH; N-terminus assumed): the results for the EC50 at human GLP-1R and at human GCGR were more than 1000 pM and 1.58 pM, respectively.
Taken in the same sequence, the figures for `CC(C)C[C@H](NC(=O)[C@H](Cc1ccc(O)cc1)NC(=O)[C@H](CCCCN)NC(=O)[C@H](CO)NC(=O)[C@H](Cc1ccc(O)cc1)NC(=O)[C@H](CC(=O)O)NC(=O)[C@H](CO)NC(=O)[C@@H](NC(=O)[C@H](Cc1ccccc1)NC(=O)[C@@H](NC(=O)CNC(=O)[C@H](Cc1c[nH]cn1)NC(=O)[C@H](CO)NC(=O)[C@@H](N)Cc1ccc(O)cc1)[C@@H](C)O)[C@@H](C)O)C(=O)N[C@@H](CC(=O)O)C(=O)N[C@@H](CO)C(=O)N[C@@H](C)C(=O)N[C@@H](CCCNC(=N)N)C(=O)N[C@@H](C)C(=O)N[C@@H](CCC(N)=O)C(=O)N[C@@H](CCC(=O)O)C(=O)N[C@@H](Cc1ccccc1)C(=O)N[C@H](C(=O)N[C@@H](CCCCN)C(=O)N[C@@H](Cc1c[nH]c2ccccc12)C(=O)N[C@@H](CC(C)C)C(=O)N[C@@H](CCC(=O)O)C(=O)N[C@@H](CC(=O)O)C(=O)N[C@@H](CCC(=O)O)C(=O)N1CCC[C@H]1C(=O)N[C@@H](CCCCN)C(=O)N[C@@H](CO)C(=O)N[C@@H](CCCCN)C(=O)N[C@@H](C)C(=O)N1CCC[C@H]1C(=O)N1CCC[C@H]1C(=O)N1CCC[C@H]1C(=O)N[C@@H](CO)C(=O)O)C(C)C` [Compound A71] (H-YSHGTFTSDYSKYLDSARAQEFVKWLEDEPKSKAPPPS-OH; N-terminus assumed) were more than 1000 pM and 2 pM.
Taken in the same sequence, the figures for `CC(C)C[C@H](NC(=O)[C@H](Cc1ccc(O)cc1)NC(=O)[C@H](CCCCN)NC(=O)[C@H](CO)NC(=O)[C@H](Cc1ccc(O)cc1)NC(=O)[C@H](CC(=O)O)NC(=O)[C@H](CO)NC(=O)[C@@H](NC(=O)[C@H](Cc1ccccc1)NC(=O)[C@@H](NC(=O)CNC(=O)[C@H](Cc1c[nH]cn1)NC(=O)[C@H](CO)NC(=O)[C@@H](N)Cc1ccc(O)cc1)[C@@H](C)O)[C@@H](C)O)C(=O)N[C@@H](CC(=O)O)C(=O)N[C@@H](CO)C(=O)N[C@@H](C)C(=O)N[C@@H](CCCNC(=N)N)C(=O)N[C@@H](C)C(=O)N[C@@H](CCC(N)=O)C(=O)N[C@@H](CCC(=O)O)C(=O)N[C@@H](Cc1ccccc1)C(=O)N[C@H](C(=O)N[C@@H](CCCCN)C(=O)N[C@@H](Cc1c[nH]c2ccccc12)C(=O)N[C@@H](CC(C)C)C(=O)N[C@@H](CCC(=O)O)C(=O)N[C@@H](CC(=O)O)C(=O)N[C@@H](CCC(=O)O)C(=O)N1CCC[C@H]1C(=O)N[C@@H](CCCCN)C(=O)N[C@@H](CO)C(=O)N[C@@H](CCCCN)C(=O)N[C@@H](C)C(=O)N1CCC[C@H]1C(=O)N1CCC[C@H]1C(=O)N1CCC[C@H]1C(=O)N[C@@H](CO)C(N)=O)C(C)C` [Compound A74] (H-YSHGTFTSDYSKYLDSARAQEFVKWLEDEPKSKAPPPS-NH2; N-terminus assumed) were more than 1000 pM and 2.51 pM.
The like results for `CC(C)C[C@H](NC(=O)[C@H](Cc1ccc(O)cc1)NC(=O)[C@H](CCCCN)NC(=O)[C@H](CO)NC(=O)[C@H](Cc1ccc(O)cc1)NC(=O)[C@H](CC(=O)O)NC(=O)[C@H](CO)NC(=O)[C@@H](NC(=O)[C@H](Cc1ccccc1)NC(=O)[C@@H](NC(=O)CNC(=O)[C@H](Cc1c[nH]cn1)NC(=O)[C@H](CO)NC(=O)[C@@H](N)Cc1c[nH]c2ccccc12)[C@@H](C)O)[C@@H](C)O)C(=O)N[C@@H](CC(=O)O)C(=O)NC(C)(C)C(=O)N[C@@H](CCCCN)C(=O)N[C@@H](CCCNC(=N)N)C(=O)N[C@@H](C)C(=O)N[C@@H](CCC(N)=O)C(=O)N[C@@H](CCC(=O)O)C(=O)N[C@@H](Cc1ccccc1)C(=O)N[C@H](C(=O)NC(C)(C)C(=O)N[C@@H](Cc1c[nH]c2ccccc12)C(=O)N[C@@H](CC(C)C)C(=O)N[C@@H](CCC(=O)O)C(=O)N[C@@H](CC(=O)O)C(=O)N[C@@H](CCC(=O)O)C(=O)N1CCC[C@H]1C(=O)N[C@@H](CO)C(=O)N[C@@H](CO)C(=O)NCC(=O)N[C@@H](C)C(=O)N1CCC[C@H]1C(=O)N1CCC[C@H]1C(=O)N1CCC[C@H]1C(=O)N[C@@H](CO)C(=O)O)C(C)C` [Compound A75] (H-WSHGTFTSDYSKYLD[Aib]KRAQEFV[Aib]WLEDEPSSGAPPPS-OH; N-terminus assumed) were, in that order, more than 1000 pM and 5.01 pM.
In the case of `CC(C)C[C@H](NC(=O)[C@H](Cc1ccc(O)cc1)NC(=O)[C@H](CCCCN)NC(=O)[C@H](CO)NC(=O)[C@H](Cc1ccc(O)cc1)NC(=O)[C@H](CC(=O)O)NC(=O)[C@H](CO)NC(=O)[C@@H](NC(=O)[C@H](Cc1ccccc1)NC(=O)[C@@H](NC(=O)CNC(=O)[C@H](Cc1c[nH]cn1)NC(=O)[C@H](CO)NC(=O)[C@@H](N)Cc1ccc(O)cc1)[C@@H](C)O)[C@@H](C)O)C(=O)N[C@@H](CC(=O)O)C(=O)NC(C)(C)C(=O)N[C@@H](CCCCN)C(=O)N[C@H](C(=O)N[C@@H](C)C(=O)N[C@@H](CCC(N)=O)C(=O)N[C@@H](CCC(=O)O)C(=O)N[C@@H](Cc1ccccc1)C(=O)N[C@H](C(=O)NC(C)(C)C(=O)N[C@@H](Cc1c[nH]c2ccccc12)C(=O)N[C@@H](CC(C)C)C(=O)N[C@@H](CCC(=O)O)C(=O)N[C@@H](CC(=O)O)C(=O)N[C@@H](CCC(=O)O)C(=O)N1CCC[C@H]1C(=O)N[C@@H](CO)C(=O)N[C@@H](CO)C(=O)NCC(=O)N[C@@H](C)C(=O)N1CCC[C@H]1C(=O)N1CCC[C@H]1C(=O)N1CCC[C@H]1C(=O)N[C@@H](CO)C(=O)O)C(C)C)[C@@H](C)O` [Compound A77] (H-YSHGTFTSDYSKYLD[Aib]KTAQEFV[Aib]WLEDEPSSGAPPPS-OH; N-terminus assumed), the figures for the EC50 on human GLP-1R and on human GCGR were more than 1000 pM and 3.16 pM, respectively.
